Key:
Adenosine receptor A2a = Adenosine receptor A2a (Homo sapiens, UniProt P29274)
[1] = target: T1, Prostaglandin G/H synthase 1 (Rattus norvegicus, UniProt Q63921); type: functional
T1 sequence (Q63921 whole entry): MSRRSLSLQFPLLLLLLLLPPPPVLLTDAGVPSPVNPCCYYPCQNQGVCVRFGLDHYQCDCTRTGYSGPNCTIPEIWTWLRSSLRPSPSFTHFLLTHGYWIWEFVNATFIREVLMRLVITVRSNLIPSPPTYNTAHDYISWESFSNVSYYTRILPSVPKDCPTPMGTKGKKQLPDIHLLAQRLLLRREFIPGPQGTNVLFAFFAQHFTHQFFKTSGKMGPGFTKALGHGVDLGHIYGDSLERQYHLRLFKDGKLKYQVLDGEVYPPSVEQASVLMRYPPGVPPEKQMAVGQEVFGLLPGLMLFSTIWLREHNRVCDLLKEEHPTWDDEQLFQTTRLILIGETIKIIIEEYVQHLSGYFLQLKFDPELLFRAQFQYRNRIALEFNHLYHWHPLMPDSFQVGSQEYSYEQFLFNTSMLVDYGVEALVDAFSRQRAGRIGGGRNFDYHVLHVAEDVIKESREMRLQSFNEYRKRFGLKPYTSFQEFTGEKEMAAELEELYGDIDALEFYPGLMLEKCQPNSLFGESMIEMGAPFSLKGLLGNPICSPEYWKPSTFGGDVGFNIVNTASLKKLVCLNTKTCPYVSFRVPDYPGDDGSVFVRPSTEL

[2] = target: T2, Muscarinic acetylcholine receptor M2 (Homo sapiens, UniProt P08172); type: functional, cell-based
T2 sequence (P08172 whole entry): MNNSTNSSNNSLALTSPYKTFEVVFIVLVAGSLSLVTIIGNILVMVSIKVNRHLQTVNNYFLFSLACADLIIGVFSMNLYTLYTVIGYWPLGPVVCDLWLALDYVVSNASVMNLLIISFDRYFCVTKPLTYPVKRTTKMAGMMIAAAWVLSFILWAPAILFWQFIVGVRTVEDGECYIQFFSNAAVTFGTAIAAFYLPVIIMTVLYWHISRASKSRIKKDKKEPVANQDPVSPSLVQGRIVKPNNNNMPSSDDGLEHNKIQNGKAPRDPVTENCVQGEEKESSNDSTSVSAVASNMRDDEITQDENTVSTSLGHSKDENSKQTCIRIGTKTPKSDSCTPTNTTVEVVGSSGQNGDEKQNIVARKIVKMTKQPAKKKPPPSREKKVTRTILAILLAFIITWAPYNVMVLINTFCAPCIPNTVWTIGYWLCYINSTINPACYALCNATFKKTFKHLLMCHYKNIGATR

[3] = target: Beta-2 adrenergic receptor (Homo sapiens, UniProt P07550)
Chain of Beta-2 adrenergic receptor (P07550 whole entry): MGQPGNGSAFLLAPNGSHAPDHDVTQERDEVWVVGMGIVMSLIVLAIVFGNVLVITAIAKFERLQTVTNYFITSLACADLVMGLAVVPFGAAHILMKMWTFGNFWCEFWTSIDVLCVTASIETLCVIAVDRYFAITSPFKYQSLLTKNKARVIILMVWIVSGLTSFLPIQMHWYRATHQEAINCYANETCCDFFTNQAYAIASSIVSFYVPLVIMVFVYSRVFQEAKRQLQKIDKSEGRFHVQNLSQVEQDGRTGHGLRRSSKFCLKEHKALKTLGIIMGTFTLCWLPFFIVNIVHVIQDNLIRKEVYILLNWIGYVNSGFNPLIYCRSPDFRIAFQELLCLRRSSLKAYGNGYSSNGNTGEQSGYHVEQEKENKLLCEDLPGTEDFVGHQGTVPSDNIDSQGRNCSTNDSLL

[4] = target: T3, Amine oxidase [flavin-containing] A (Homo sapiens, UniProt P21397); type: functional
T3 sequence (P21397 whole entry): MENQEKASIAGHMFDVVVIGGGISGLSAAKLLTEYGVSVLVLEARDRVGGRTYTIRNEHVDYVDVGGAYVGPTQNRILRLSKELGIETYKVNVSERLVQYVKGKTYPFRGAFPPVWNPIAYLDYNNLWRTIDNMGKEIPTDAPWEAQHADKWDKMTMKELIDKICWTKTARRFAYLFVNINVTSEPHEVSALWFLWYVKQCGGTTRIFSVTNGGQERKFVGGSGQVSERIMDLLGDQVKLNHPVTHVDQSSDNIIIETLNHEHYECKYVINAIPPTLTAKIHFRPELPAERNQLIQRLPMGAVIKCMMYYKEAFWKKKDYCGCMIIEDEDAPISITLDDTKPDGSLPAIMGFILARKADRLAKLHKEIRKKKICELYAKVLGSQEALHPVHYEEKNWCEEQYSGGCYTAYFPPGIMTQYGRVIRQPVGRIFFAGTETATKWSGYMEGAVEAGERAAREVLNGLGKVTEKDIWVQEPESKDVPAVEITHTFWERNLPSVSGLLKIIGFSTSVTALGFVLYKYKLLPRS

D(1A) dopamine receptor = D(1A) dopamine receptor (Homo sapiens, UniProt P21728); type: functional, cell-based
Chain of D(1A) dopamine receptor (P21728 whole entry): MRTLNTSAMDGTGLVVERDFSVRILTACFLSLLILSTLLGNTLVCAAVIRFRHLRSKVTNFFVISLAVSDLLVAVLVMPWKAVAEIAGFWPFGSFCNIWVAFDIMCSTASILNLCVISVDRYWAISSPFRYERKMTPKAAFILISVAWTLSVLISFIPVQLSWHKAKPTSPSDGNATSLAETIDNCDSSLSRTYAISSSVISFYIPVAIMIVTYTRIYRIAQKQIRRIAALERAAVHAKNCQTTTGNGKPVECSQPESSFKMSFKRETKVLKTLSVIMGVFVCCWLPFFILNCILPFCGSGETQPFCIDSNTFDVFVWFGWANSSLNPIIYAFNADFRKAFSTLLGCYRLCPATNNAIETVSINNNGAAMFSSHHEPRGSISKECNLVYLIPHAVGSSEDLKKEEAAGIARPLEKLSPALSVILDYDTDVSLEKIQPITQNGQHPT

[5] = target: Voltage-gated inwardly rectifying potassium channel KCNH2 (Homo sapiens, UniProt Q12809); type: functional; conditions: read-out: AC50
Chain of Voltage-gated inwardly rectifying potassium channel KCNH2 (Q12809 whole entry): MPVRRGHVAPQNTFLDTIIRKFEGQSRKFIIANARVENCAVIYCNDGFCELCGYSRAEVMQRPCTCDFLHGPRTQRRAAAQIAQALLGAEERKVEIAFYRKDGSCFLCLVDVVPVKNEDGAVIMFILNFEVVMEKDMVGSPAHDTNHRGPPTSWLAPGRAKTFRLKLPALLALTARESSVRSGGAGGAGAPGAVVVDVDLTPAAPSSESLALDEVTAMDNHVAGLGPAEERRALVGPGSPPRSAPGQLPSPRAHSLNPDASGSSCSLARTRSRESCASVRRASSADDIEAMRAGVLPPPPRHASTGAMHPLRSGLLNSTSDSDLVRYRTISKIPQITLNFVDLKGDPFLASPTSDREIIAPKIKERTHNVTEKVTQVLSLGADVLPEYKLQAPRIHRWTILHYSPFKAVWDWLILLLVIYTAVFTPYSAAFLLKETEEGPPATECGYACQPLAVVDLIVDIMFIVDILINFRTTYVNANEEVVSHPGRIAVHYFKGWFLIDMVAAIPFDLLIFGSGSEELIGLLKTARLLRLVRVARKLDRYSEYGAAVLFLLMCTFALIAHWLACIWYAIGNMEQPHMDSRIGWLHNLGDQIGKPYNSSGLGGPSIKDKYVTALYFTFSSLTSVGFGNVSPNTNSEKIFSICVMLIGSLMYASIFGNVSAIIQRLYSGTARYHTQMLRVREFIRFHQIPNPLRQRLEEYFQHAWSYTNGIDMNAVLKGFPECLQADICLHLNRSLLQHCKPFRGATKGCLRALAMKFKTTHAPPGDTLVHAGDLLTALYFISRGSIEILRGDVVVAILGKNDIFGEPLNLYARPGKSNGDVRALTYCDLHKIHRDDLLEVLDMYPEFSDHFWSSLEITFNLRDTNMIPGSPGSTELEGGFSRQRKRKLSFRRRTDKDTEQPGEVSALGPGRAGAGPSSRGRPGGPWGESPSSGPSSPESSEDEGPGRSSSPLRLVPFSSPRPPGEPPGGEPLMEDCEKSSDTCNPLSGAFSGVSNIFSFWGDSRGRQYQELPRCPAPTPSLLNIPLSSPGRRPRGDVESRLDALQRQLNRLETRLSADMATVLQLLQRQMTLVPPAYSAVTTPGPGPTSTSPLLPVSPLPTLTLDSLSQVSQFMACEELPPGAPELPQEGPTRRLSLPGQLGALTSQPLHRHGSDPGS

Progesterone receptor = target: T4, Progesterone receptor (Homo sapiens, UniProt P06401); type: functional
T4 sequence (P06401 whole entry): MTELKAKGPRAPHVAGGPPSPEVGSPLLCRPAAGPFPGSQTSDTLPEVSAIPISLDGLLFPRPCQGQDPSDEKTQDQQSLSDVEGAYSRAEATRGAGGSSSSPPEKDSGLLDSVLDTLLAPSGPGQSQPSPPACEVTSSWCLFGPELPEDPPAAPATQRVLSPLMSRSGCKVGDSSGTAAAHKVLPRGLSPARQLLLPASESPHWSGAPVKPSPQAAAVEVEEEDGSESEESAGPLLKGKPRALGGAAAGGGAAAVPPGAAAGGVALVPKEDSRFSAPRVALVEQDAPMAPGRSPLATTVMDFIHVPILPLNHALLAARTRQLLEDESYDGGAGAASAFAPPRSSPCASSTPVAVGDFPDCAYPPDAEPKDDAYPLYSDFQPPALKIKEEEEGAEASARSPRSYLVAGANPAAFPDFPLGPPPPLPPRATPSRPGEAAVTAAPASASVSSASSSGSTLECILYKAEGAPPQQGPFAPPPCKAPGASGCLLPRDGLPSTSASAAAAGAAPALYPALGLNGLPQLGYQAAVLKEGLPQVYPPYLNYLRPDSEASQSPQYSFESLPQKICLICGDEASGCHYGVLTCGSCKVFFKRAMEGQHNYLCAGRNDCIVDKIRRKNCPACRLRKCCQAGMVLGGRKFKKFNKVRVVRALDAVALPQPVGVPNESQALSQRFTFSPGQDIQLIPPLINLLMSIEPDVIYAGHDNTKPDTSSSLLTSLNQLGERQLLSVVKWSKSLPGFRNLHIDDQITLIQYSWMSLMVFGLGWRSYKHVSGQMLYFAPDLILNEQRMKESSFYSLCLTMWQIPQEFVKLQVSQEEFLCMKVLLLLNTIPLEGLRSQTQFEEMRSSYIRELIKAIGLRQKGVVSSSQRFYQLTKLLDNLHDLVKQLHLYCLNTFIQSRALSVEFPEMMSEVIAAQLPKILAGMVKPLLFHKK
Note: assay procedure not described here.

Chain of Adenosine receptor A2a (P29274 whole entry): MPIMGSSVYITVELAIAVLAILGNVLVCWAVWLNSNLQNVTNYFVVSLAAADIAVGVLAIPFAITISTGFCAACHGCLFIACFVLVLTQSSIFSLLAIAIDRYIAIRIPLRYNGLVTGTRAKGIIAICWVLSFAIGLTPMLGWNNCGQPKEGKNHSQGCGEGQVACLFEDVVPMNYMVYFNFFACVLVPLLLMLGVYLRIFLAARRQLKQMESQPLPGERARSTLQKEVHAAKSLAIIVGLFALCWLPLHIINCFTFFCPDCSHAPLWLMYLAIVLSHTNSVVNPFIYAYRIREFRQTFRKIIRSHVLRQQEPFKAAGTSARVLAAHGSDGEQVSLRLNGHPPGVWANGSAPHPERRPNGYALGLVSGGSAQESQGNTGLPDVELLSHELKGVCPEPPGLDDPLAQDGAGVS

Compound	AC50 (Adenosine receptor A2a)	AC50 [1]	AC50 [2]	AC50 [3]	AC50 [4]	AC50 (D(1A) dopamine receptor)	AC50 [5]	AC50 (Progesterone receptor)
CN[C@@H](C)[C@H](O)c1ccccc1 [EPHEDRINE]	> 30 µM	> 30 µM	> 10 µM	> 10 µM	> 10 µM	> 10 µM	> 30 µM	
Nc1nc2ccc(OC(F)(F)F)cc2s1 [RILUZOLE]	> 30 µM	> 30 µM	> 30 µM		> 30 µM	> 30 µM		> 30 µM
NC(=O)C[S+]([O-])C(c1ccccc1)c1ccccc1 (stereo not drawn) [MODAFINIL]	> 30 µM	> 30 µM	> 10 µM	> 10 µM	> 10 µM	> 10 µM	> 30 µM	
C[C@]12CCC(=O)C=C1CC[C@@H]1[C@@H]2CC[C@@]2(C)[C@H]1CC[C@]2(C)O [METHYLTESTOSTERONE]	> 30 µM	> 30 µM	> 30 µM	> 30 µM	> 30 µM	> 30 µM	> 30 µM	
CC(=O)O[C@@]12CO[C@@H]1C[C@H](O)[C@@]1(C)C(=O)[C@H](O)C3=C(C)[C@@H](OC(=O)[C@H](O)[C@@H](NC(=O)OC(C)(C)C)c4ccccc4)C[C@@](O)([C@@H](OC(=O)c4ccccc4)[C@H]21)C3(C)C [DOCETAXEL ANHYDROUS]	> 30 µM	> 30 µM	> 30 µM	> 30 µM	> 30 µM	> 30 µM	> 30 µM	> 30 µM
O=C1NCCN1CCN1CCC(c2cn(-c3ccc(F)cc3)c3ccc(Cl)cc23)CC1 [SERTINDOLE]	> 30 µM	> 30 µM	> 10 µM		22 µM	> 30 µM		> 30 µM
CCNC(C)Cc1cccc(C(F)(F)F)c1 (stereo not drawn) [FENFLURAMINE]	> 30 µM	> 30 µM	> 30 µM		> 10 µM		> 30 µM	
COc1ccc2c(c1)c(CC(=O)OCC(=O)O)c(C)n2C(=O)c1ccc(Cl)cc1 [ACEMETACIN]	> 30 µM	30 µM	> 30 µM	> 30 µM	> 30 µM	> 30 µM	> 30 µM	> 30 µM
Cc1cc2c(OCC(CNC(C)(C)C)OC(=O)c3ccccc3)cccc2[nH]1 (stereo not drawn) [BOPINDOLOL]	> 30 µM	3.5 µM	> 30 µM	0.0064 µM	> 30 µM	> 30 µM	0.49 µM	> 30 µM
COc1c(N2CCNC(C)C2)c(F)cc2c(=O)c(C(=O)O)cn(C3CC3)c12 (stereo not drawn) [GATIFLOXACIN]	> 10 µM	> 10 µM	> 10 µM	> 10 µM	> 10 µM	> 30 µM	24 µM	> 10 µM
CCCOc1ccc(C(=O)OCCN(CC)CC)cc1N [PROPARACAINE]	> 30 µM	0.75 µM	> 30 µM		11 µM	> 30 µM	6.4 µM	> 30 µM
COc1ccc2cccc(CCNC(C)=O)c2c1 [AGOMELATINE]	> 30 µM	> 30 µM	> 30 µM	> 10 µM	> 10 µM	> 10 µM	> 30 µM	
Cc1c(C(=O)Nc2ccc(N3C[C@@H](C)O[C@@H](C)C3)nc2)cccc1-c1ccc(OC(F)(F)F)cc1 [SONIDEGIB]	> 30 µM	> 30 µM		> 10 µM				
[H]/N=C(/N)c1ccc(NCc2nc3cc(C(=O)N(CCC(=O)O)c4ccccn4)ccc3n2C)cc1 [DABIGATRAN]	> 30 µM	> 30 µM	> 30 µM		> 30 µM	> 30 µM	> 30 µM	> 30 µM
CN1C(=O)COc2c(C(=O)NC3CN4CCC3CC4)cc(Cl)cc21 (stereo not drawn) [AZASETRON]	> 30 µM	> 30 µM	> 30 µM	> 30 µM	> 30 µM	> 30 µM	8.5 µM	> 30 µM
C#CCN(C)[C@H](C)Cc1ccccc1 [SELEGILINE]	> 10 µM	> 10 µM	> 10 µM	> 10 µM		> 10 µM	> 30 µM	> 10 µM
CCN(CC)CCOC(=O)c1ccc(N)cc1 [PROCAINE]	> 30 µM	> 30 µM	> 10 µM	> 10 µM	16 µM	> 10 µM	> 30 µM	
Cc1cccc(C)c1NC(=O)C1CCCCN1C (stereo not drawn) [MEPIVACAINE]	> 30 µM	> 30 µM	> 30 µM		> 30 µM	> 30 µM	> 30 µM	> 30 µM
COc1c(C)c2c(c(O)c1C/C=C(\C)CCC(=O)OCCN1CCOCC1)C(=O)OC2 [MYCOPHENOLATE MOFETIL]	> 30 µM		> 30 µM	> 30 µM	> 30 µM	> 30 µM	13 µM	> 30 µM
CCN1CCC[C@H]1CNC(=O)c1cc(S(N)(=O)=O)ccc1OC [LEVOSULPIRIDE]	> 30 µM	> 30 µM	> 10 µM	> 30 µM	> 10 µM	> 30 µM	> 30 µM	
CCCCN1CCCCC1C(=O)Nc1c(C)cccc1C (stereo not drawn) [BUPIVACAINE]	> 30 µM	> 30 µM	> 30 µM		> 30 µM	> 30 µM	11 µM	> 30 µM
CC(C)c1c(C(=O)Nc2ccccc2)c(-c2ccccc2)c(-c2ccc(F)cc2)n1CC[C@@H](O)C[C@@H](O)CC(=O)O [ATORVASTATIN]	> 30 µM	> 30 µM		> 10 µM	> 10 µM			

Reference: ChEMBL document CHEMBL5291721, “A preclinical secondary pharmacology resource illuminates target-adverse drug reaction associations of marketed drugs” (Nat Commun, 2023)
